These compounds were tested on phospho-serine 2056 DNA-PK in HCT116 cells (assay: DNA-PK phosphorylation at serine 2056 (cellular), ELISA in bleomycin-treated HCT116 cells). Conditions: Homo sapiens, HCT-116, 6 h, cellular; HCT116 cells, 10 μM bleomycin, six hours; read-out: IC50 pDNA-PK.
Assay type: cell-based
Experimental: HCT116 cells were cultivated at 37° C. and 10% CO2 in MEM alpha medium with 10% of foetal calf serum and 2 mM glutamine. The cells were detached from the base of the culture vessels with the aid of trypsin/EDTA, centrifuged off in centrifuge tubes, taken up in fresh medium, and the cell density was determined. 100,000 cells were sown in 1 ml of culture medium per cavity of a 24-well cell culture plate and cultivated overnight. Next day, 10 μM bleomycin (DNA intercalator and inductor of DNA double-strand breaks) and test substances in fresh culture medium were added to the cells, and these were cultivated for a further six hours. […] The 96-well ELISA plates were subsequently treated with a detection antibody (Abcam ab79444: total DNA-PK) and a streptavidin-HRP conjugate. The development of the enzymatic reaction was carried out with the aid of a chemiluminescent reagent, the chemiluminescence was measured with the aid of a Mithras LB940. The signals with the phospho-DNA-PK-specific antibody were standardised to the signal with the antibody against the total protein DNA-PKc. […] The DMSO control was used as blank.

IC50	Compound
10 to 30 µM	Cn1nccc1C(O)c1ccc(F)c(-c2nc(Cl)nc3cc(N4CCOCC4)ccc23)c1 (stereo not drawn) [Example 214, [3-(2-Chloro-7-morpholin-4-yl-quinazolin-4-yl)-4-fluoro-phenyl]-(2-methyl-2H-pyrazol-3-yl)-methanol]
10 to 30 µM	COc1cnc(C(O)c2ccc(F)c(-c3ncnc4cc(N5CCOCC5)ccc34)c2)nc1 (stereo not drawn) [Example 66, [4-Fluoro-3-(7-morpholin-4-yl-quinazolin-4-yl)phenyl]-(5-methoxypyrimidin-2-yl)methanol]
10 to 30 µM	NC(=O)Cn1nc(C(O)c2cc(-c3ncnc4cc(N5CCOCC5)ccc34)c(F)cc2Cl)ccc1=O (stereo not drawn) [Example 98, 2-(3-{[2-Chloro-4-fluoro-5-(7-morpholin-4-ylquinazolin-4-yl)-phenyl]hydroxymethyl}-6-oxo-6H-pyridazin-1-yl)acetamide]
0.5 to 5 µM	COc1nnc(C(O)c2cc(-c3ncnc4cc(N5CCOCC5)ccc34)c(F)cc2Cl)c2ccncc12 (stereo not drawn) [Example 40, [2-Chloro-4-fluoro-5-(7-morpholin-4-yl-quinazolin-4-yl)phenyl]-(4-methoxypyrido-[3,4-d}pyridazin-1-yl)-methanol]
0.5 to 5 µM	OC(c1ccc(F)c(-c2ncnc3cc(N4CCOCC4)ccc23)c1)c1c(F)cncc1F (stereo not drawn) [Example 1, (3,5-Difluoropyridin-4-yl)-[4-fluoro-3-(7-morpholin-4-ylquinazolin-4-yl)phenyl]methanol]

Same assay, conditions: Homo sapiens, HCT-116, cellular DNA-PK phosphorylation at serine 2056, HCT116 cells; read-out: IC50 pDNA-PK

IC50	Compound
< 0.5 µM	OC(c1cc(-c2ncnc3cc(N4CCOCC4)ccc23)c(F)cc1Cl)c1ncnc2sccc12 (stereo not drawn) [Example 429, [2-Chloro-4-fluoro-5-(7-morpholin-4-yl-quinazolin-4-yl)-phenyl]thieno[2,3-d}-pyrimidin-4-yl-methanol]
10 to 30 µM	OC(c1cn2ccsc2n1)c1cc(-c2ncnc3cc(N4CCOCC4)ccc23)c(F)cc1F (stereo not drawn) [Example 474, [2,4-Difluoro-5-(7-morpholin-4-yl-quinazolin-4-yl)-phenyl]imidazo-[2,1-b]thiazol-6-yl-methanol]
0.5 to 5 µM	COc1cncnc1C(O)c1cc(-c2ncnc3cc(N4CCOCC4)ccc23)c(F)cc1F (stereo not drawn) [Example 448, [2,4-Difluoro-5-(7-morpholin-4-yl-quinazolin-4-yl)-phenyl]-(5-methoxy-pyrimidin-4-yl)-methanol]

Same assay, conditions: Homo sapiens, HCT-116, phospho-serine 2056 DNA-PK, bleomycin-treated HCT116 cells; class symbols A-D; read-out: IC50 pDNA-PK

IC50	Compound
< 0.5 µM	OC(c1ccccn1)c1cc(-c2ncnc3cc(N4CCOCC4)ccc23)c(F)cc1F (stereo not drawn) [Example 218, [2,4-Difluoro-5-(7-morpholin-4-yl-quinazolin-4-yl)-phenyl]pyridin-2-yl-methanol]
0.5 to 5 µM	COc1ccc(C(O)c2cc(-c3ncnc4cc(N5CCOCC5)ccc34)c(F)cc2F)cn1 (stereo not drawn) [Example 221, [2,4-Difluoro-5-(7-morpholin-4-yl-quinazolin-4-yl)-phenyl]-(6-methoxy-pyridin-3-yl)methanol]
5 to 10 µM	Cn1nc(C(O)c2ccc(F)c(-c3ncnc4cc(N5CCOCC5)ccc34)c2F)ccc1=O (stereo not drawn) [Example 220, 6-{[2,4-Difluoro-3-(7-morpholin-4-yl-quinazolin-4-yl)-phenyl]hydroxy-methyl}-2-methyl-2H-pyridazin-3-one]
10 to 30 µM	O=C(O)COc1ccc(C(O)c2cc(-c3ncnc4cc(N5CCOCC5)ccc34)c(F)cc2Cl)nn1 (stereo not drawn) [Example 113, (6-{[2-Chloro-4-fluoro-5-(7-morpholin-4-yl-quinazolin-4-yl)-phenyl]hydroxy-methyl}pyridazin-3-yl-oxy)acetic acid]
5 to 10 µM	CN(C)CCOc1ccc(C(O)c2ccc(F)c(-c3ncnc4cc(N5CCOCC5)ccc34)c2)nn1 (stereo not drawn) [Example 133, [6-(2-Dimethyl-amino-ethoxy)-pyridazin-3-yl]-[4-fluoro-3-(7-morpholin-4-yl-quinazolin-4-yl)-phenyl]methanol]

Same assay, conditions: Homo sapiens, HCT-116, phospho-serine 2056 DNA-PK, bleomycin-treated HCT116 cells; read-out: IC50 pDNA-PK

IC50	Compound
0.5 to 5 µM	Cc1cnc(C(O)c2cc(-c3ncnc4cc(N5CCOCC5)ccc34)c(F)cc2F)c(C)n1 (stereo not drawn) [Example 355, [2,4-Difluoro-5-(7-morpholin-4-yl-quinazolin-4-yl)-phenyl]-(3,5-dimethyl-pyrazin-2-yl)methanol]
< 0.5 µM	OC(c1cc(-c2ncnc3cc(N4CCOCC4)ccc23)c(F)cc1F)c1nncc2sccc12 (stereo not drawn) [Example 341, [2,4-Difluoro-5-(7-morpholin-4-yl-quinazolin-4-yl)-phenyl]thieno[2,3-d}-pyridazin-4-yl-methanol]
5 to 10 µM	Cc1nccnc1C(C(N)=O)c1cc(-c2ncnc3cc(N4CCOCC4)ccc23)c(F)cc1F (stereo not drawn) [Example 329, 2-[2,4-Difluoro-5-(7-morpholin-4-yl-quinazolin-4-yl)-phenyl]-2-(3-methyl-pyrazin-2-yl)-acetamide]
10 to 30 µM	Cc1cc(C(C(N)=O)c2cc(-c3ncnc4cc(N5CCOCC5)ccc34)c(F)cc2Cl)n(C)c(=O)c1 (stereo not drawn) [Example 334, 2-[2-Chloro-4-fluoro-5-(7-morpholin-4-yl-quinazolin-4-yl)-phenyl]-2-(1,4-dimethyl-6-oxo-1,6-dihydropyridin-2-yl)-acetamide]

The remaining lines, values behind:

Compound	IC50
[2H]C1([2H])OC([2H])([2H])C([2H])([2H])N(c2ccc3c(-c4cc(C(O)c5nccnc5C)ccc4F)ncnc3c2)C1([2H])[2H] (stereo not drawn) [Example 238, [4-Fluoro-3-[7-(2,2,3,3,5,5,6,6-octadeuterio-morpholin-4-yl)quinazolin-4-yl]phenyl]-(3-methyl-pyrazin-2-yl)-methanol]	< 0.5 µM
NC(=O)C(c1ccc(F)c(-c2ncnc3cc(N4CCOCC4)ccc23)c1)c1nncc2sccc12 (stereo not drawn) [Example 285, 2-[4-Fluoro-3-(7-morpholin-4-yl-quinazolin-4-yl)-phenyl]-2-thieno-[2,3-d}pyridazin-4-yl-acetamide]	10 to 30 µM
NC(=O)C(c1cccnc1)c1ccc(F)c(-c2ncnc3cc(N4CCOCC4)ccc23)c1 (stereo not drawn) [Example 295, 2-[4-Fluoro-3-(7-morpholin-4-yl-quinazolin-4-yl)-phenyl]-2-pyridin-3-ylacetamide]	10 to 30 µM
Cc1nccnc1C(O)c1ccc(F)c(-c2ncnc3cc(N4CCOCC4)cnc23)c1 (stereo not drawn) [Example 237, [4-Fluoro-3-(7-morpholin-4-yl-pyrido[3,2-d}-pyrimidin-4-yl)-phenyl]-(3-methyl-pyrazin-2-yl)-methanol]	< 0.5 µM
[2H]C1([2H])OC([2H])([2H])C([2H])([2H])N(c2ccc3c(-c4cc(C(O)c5nccnc5OC)c(Cl)cc4F)ncnc3c2)C1([2H])[2H] (stereo not drawn) [Example 241, [2-Chloro-4-fluoro-5-[7-(2,2,3,3,5,5,6,6-octadeuterio-morpholin-4-yl)quinazolin-4-yl]phenyl]-(3-methoxypyrazin-2-yl)methanol]	< 0.5 µM

Same assay, conditions: cellular DNA-PK phosphorylation at serine 2056, HCT116 cells; read-out: IC50 pDNA-PK

IC50	Compound
< 0.5 µM	COc1nccnc1C(O)c1cc(-c2ncnc3cc(N4CCOCC4)ccc23)c(F)cc1F (stereo not drawn) [Example 467, [2,4-Difluoro-5-(7-morpholin-4-yl-quinazolin-4-yl)-phenyl]-(3-methoxy-pyrazin-2-yl)-methanol]
0.5 to 5 µM	Cn1c(C(O)c2cc(-c3ncnc4cc(N5CCOCC5)ccc34)c(F)cc2F)cccc1=O (stereo not drawn) [Example 436, 6-{[2,4-Difluoro-5-(7-morpholin-4-yl-quinazolin-4-yl)-phenyl]hydroxy-methyl}-1-methyl-1H-pyridin-2-one]
< 0.5 µM	OC(c1ccc(F)c(-c2ncnc3cc(N4CCOCC4)ccc23)c1)c1ncnc2ccoc12 (stereo not drawn) [Example 471, [4-Fluoro-3-(7-morpholin-4-yl-quinazolin-4-yl)-phenyl]furo[3,2-d}-pyrimidin-4-yl-methanol]

Same assay, conditions: cellular; HCT116 cells, 10 μM bleomycin, six hours; read-out: IC50 pDNA-PK

IC50	Compound
< 0.5 µM	OC(c1cccnn1)c1cc(-c2ncnc3cc(N4CCOCC4)ccc23)c(F)cc1Cl (stereo not drawn) [Example 30, [2-Chloro-4-fluoro-5-(7-morpholin-4-yl-quinazolin-4-yl)phenyl]-pyridazin-3-ylmethanol]
< 0.5 µM	Cn1nc(C(O)c2cc(-c3ncnc4cc(N5CCOCC5)ccc34)c(F)cc2Cl)ccc1=O (stereo not drawn) [Example 45, 6-{[2-Chloro-4-fluoro-5-(7-morpholin-4-yl-quinazolin-4-yl)phenyl]-hydroxymethyl}-2-methyl-2H-pyridazin-3-one]

Same assay, conditions: phospho-serine 2056 DNA-PK, bleomycin-treated HCT116 cells; class symbols A-D; read-out: IC50 pDNA-PK

IC50	Compound
0.5 to 5 µM	OC(c1ccc(F)c(-c2ncnc3cc(N4CCOCC4)sc23)c1)c1nccs1 (stereo not drawn) [Example 146, [4-Fluoro-3-(6-morpholin-4-yl-thieno[3,2-d}-pyrimidin-4-yl)-phenyl]thiazol-2-yl-methanol]
< 0.5 µM	COc1ccc(C(O)c2cc(-c3ncnc4cc(N5CCOCC5)sc34)c(F)cc2Cl)nn1 (single isomer, unassigned) [Example 126, [2-Chloro-4-fluoro-5-(6-morpholin-4-ylthieno[3,2-d}-pyrimidin-4-yl)-phenyl]-(6-methoxy-pyridazin-3-yl)-methanol]

Same assay, conditions: phospho-serine 2056 DNA-PK, bleomycin-treated HCT116 cells; read-out: IC50 pDNA-PK

IC50	Compound
< 0.5 µM	[2H]C1([2H])OC([2H])([2H])C([2H])([2H])N(c2ccc3c(-c4cc(C(O)c5ccc(OC)nn5)c(Cl)cc4F)ncnc3c2)C1([2H])[2H] (stereo not drawn) [Example 244, [2-Chloro-4-fluoro-5-[7-(2,2,3,3,5,5,6,6-octadeuterio-morpholin-4-yl)quinazolin-4-yl]phenyl]-(6-methoxypyridazin-3-yl)methanol]

From patent US11065253B2, “Arylquinazolines” (Merck Patent GmbH, priority 2013, dated 2021)
